Experimental data as given in ChEMBL document CHEMBL1159226, “Xestobergsterol C, a new pentacyclic steroid from the Okinawan marine sponge Ircinia Sp. and absolute stereochemistry of xestobergsterol A” (J Nat Prod, 1995).
Values after ≈ are worked out from the molar mass of the structure shown.

Tested on: L1210
Experiment: Cytotoxicity against mouse L1210 cells
Assay type: functional, cell-based

## CC(C)C[C@@]1(O)C[C@@H](C)[C@H]2[C@@H]1C(=O)[C@H]1[C@@H]3[C@@H](O)[C@H](O)[C@H]4C[C@H](O)CC[C@]4(C)[C@H]3CC[C@]21C
  IC50: 4 µg/mL (≈ 8.92 µM)

## CC(C)C[C@@]1(O)C[C@@H](C)[C@H]2[C@@H]1C(=O)[C@H]1[C@@H]3[C@@H](O)[C@H](O)[C@H]4C[C@H](O)[C@@H](O)C[C@]4(C)[C@H]3CC[C@]21C
  IC50: 4.1 µg/mL (≈ 8.82 µM)

## CC(C)C[C@@]1(O)C[C@@H](C)[C@H]2[C@@H]1C(=O)[C@H]1[C@@H]3[C@@H](O)[C@H](O)[C@H]4C[C@H](O)[C@@H](O)[C@@H](O)[C@]4(C)[C@H]3CC[C@]21C
  IC50: > 10 µg/mL
